Converted amounts (≈) assume the structure as drawn. Where two headings read alike, the source gives them in different places.
Key:
[1] = DPPH radical scavenging assay; conditions: for IC50: 0.2 mM DPPH in ethanol, 37 °C, 30 min, read-out: IC50 representing 50% of DPPH radical scavenging
Protocol: Measurements of DPPH radical scavenging activity were performed based on the method described by Ratha et al. and Blois, with slight modifications. Briefly, DPPH was dissolved in absolute ethanol to 0.2 mM, and 20 μL of the diluted sample was added to 180 μL of the DPPH solution. The reaction was performed at 37 °C for 30 min to stabilize the color, and the absorbance of the reaction solution was measured at 520 nm using a microplate reader (Epoch2, Bio Tek, Winooski, VT, USA). The DPPH radical scavenging activity was calculated using the following formula. Ascorbic acid was used as a positive control. DPPH radical scavenging activity%=A−B/A×100 where A is the absorbance of the reaction solution without a sample, and B is the absorbance of the reaction solution with a sample.

[2] = β-carotene bleaching assay; conditions: for IC50: β-carotene/linoleic acid emulsion, 50 °C, 2 h
Protocol: Measurements of the inhibition activity of β-carotene oxidation were performed using the method described by Wanasundara et al. and Hidalgo et al. with slight modifications. Briefly, a mixture of β-carotene and linoleic acid was prepared by dissolving 0.2 mg of β-carotene in 1 mL of chloroform and mixing this solution with 200 mg of Tween 20 containing 20 mg of linoleic acid. After removing the chloroform from the mixture in a rotary evaporator at 50 °C, 100 mL of deionized water was added to prepare an emulsion. The diluted sample (100 μL) was mixed with 900 μL of the prepared emulsion and the absorbance was measured immediately at 470 nm. Then, after a reaction at 50 °C for 2 h, the absorbance was measured again at 470 nm. Antioxidant activity was evaluated as a percent of oxidation inhibition compared to the untreated group sample. As a positive control, BHT (butylated hydroxytoluene) was used in the experiment. β−Carotene bleaching inhibition activity%=A0−At−(B0−Bt)/A0−At×100 where A0 is the initial absorbance without a sample, At is the final absorbance without a sample, B0 is the initial absorbance with a sample, and Bt is the final absorbance with a sample.

[3] = n-octanol–water partition coefficient; assay type: physicochemical; conditions: 500 μM sample, 20 h at 20 °C, HPLC, mean ± SD (n = 3); for logP at 20 h: n-octanol/water, read-out: Log Po/w (n-octanol–water partition coefficient) (converted)
Protocol: The hydrophobic/hydrophilic properties were investigated by measuring octanol–water partition coefficients. Octanol–water partition coefficients of the four hesperidin-related compounds were determined by the method described in the previous study. Briefly, samples (500 μM) were mixed in deionized water with an equal volume of n-octanol, and then the mixture was kept for 20 h at 20 °C in the dark to reach partition equilibrium. The concentration of each sample was determined by HPLC, and the partition coefficient (log P) was calculated as the ratio of the concentration in the n-octanol phase to the concentration in the water phase. Partition coefficient LogP=LogCoctanol/[C]water where [C]n-octanol is the concentration of a compound in the n-octanol phase, and [C]water is the concentration of a compound in the water phase.

[4] = tested on: HaCaT cells; experiment: MTT cell viability / cytotoxicity assay; conditions: 24 h, tested 12.5–200 μM
Protocol: The keratinocyte HaCaT cell line was obtained from AddexBio (SanDiego, CA, USA). The cells were maintained in DMEM supplemented with 10% FBS and 1% of penicillin/streptomycin under a humidified atmosphere condition of 5% CO2 at 37 °C. The cytotoxicity of HD and the related compounds was assessed by MTT assay. Cells were seeded in 96-well plates at a density of 2 × 10^4 cells/well and incubated for 24 h at 37 °C. Each sample of HTL, HT, HD, and HDG was dissolved in DMSO as a stock solution (0.1 M). […] After incubation for 24 h, the culture medium was removed and MTT solution (100 μL) was added to the well. The mixture was kept at 37 °C for 2 h, then DMSO was added to the reaction mixture and the absorbance at 540 nm was measured in a microplate reader (Epoch2, Bio Tek, Winooski, VT, USA). Cell viability was calculated as a percentage of difference in absorbance between control and test samples.

[5] = tested on: nitric oxide (NO) in HaCaT cells; experiment: Cellular NO levels after UV irradiation; assay type: cell-based; conditions: UV 10 mJ/cm^2, 24 h; for NO levels (in words): tested up to 50 μM; for NO production (in words): at 25 μM
Protocol: Cellular NO levels were determined as an inflammatory intermediate in HaCaT cells. […] Then, cells with or without samples were irradiate with 10 mJ/cm^2 of UV rays at 302 nm using a UV irradiator (UV Crosslinker CL-1000M, UVP, Upland, CA, USA). […] After 24 h incubation, the NO content in the media was measured using an NO assay kit according to the manufacturer’s experimental protocol. The absorbance was measured at 540 nm in the same microplate reader as above.

[6] = tested on: TNF-α in HaCaT cells; experiment: Cellular TNF-α levels after UV irradiation (ELISA); assay type: cell-based, Human; conditions: UV 10 mJ/cm^2, 24 h, tested concentrations up to 25 μM
Protocol: (§1) Cellular levels of TNF-α and IL-6 were measured in HaCaT cells after the addition of various concentrations of HTL, HT, HD, and HDG under UV irradiation. The cell culture and sample treatment conditions for the TNF-α and IL-6 assay were the same as those used in the NO assay. The TNF-α and IL-6 contents in the media were measured, respectively, using commercial detection kits according to the manufacturer’s protocols. The absorbance was measured at 450 nm in the same microplate reader as above.

[7] = tested on: IL-6 in HaCaT cells; experiment: Cellular IL-6 levels after UV irradiation (ELISA); assay type: cell-based, Human; conditions: UV 10 mJ/cm^2, 24 h, tested concentrations up to 25 μM
Protocol: as §1

[8] = tested on: Candida albicans; experiment: MIC, broth micro-dilution with resazurin; assay type: cell-based, Candida albicans (KCCM 50235); conditions: read-out: MIC Value
Protocol: (§2) Antimicrobial capacity was evaluated against some bacteria and yeast known to be major skin resident microorganisms. Staphylococcus aureus (KCCM 11335) was cultivated on TS agar, and Cutibacterium acnes (KCTC 25526) was cultivated on RCM agar in an anaerobic jar (Rec. Jar, Mitsubishi Gas Chemical Co., Tokyo, Japan) with anaerobic gas packs. Candida albicans (KCCM 50235) was cultivated on YM agar, and Malassezia furfur (KCTC 7545) was cultivated on MLN agar. All the microbes were cultivated at 35 °C.
(§3) For the determination of MIC, S. aureus was cultivated in TS broth, and C. acnes was cultivated in RCM medium in an anaerobic jar with gentle shaking. C. albicans was cultivated in an RPMI-1640 medium supplemented with L-glutamine, and M. furfur was cultivated in an RPMI medium supplemented with 2% oleic acid, 0.5% glycerol, 0.5% Tween 60, and 0.2% sodium bicarbonate. All the microbes were cultivated at 35 °C, and the inoculum size for MICs was 5 × 10^5 cells/mL for S. aureus, and 1.5 × 10^5 cells/mL for C. acnes, C. albicans, and M. furfur, respectively.
MIC values were determined by the broth micro-dilution method with some modifications. Briefly, the culture broth of each microorganism was diluted with the same medium. Two-fold serial dilutions of HTL, HT, HD, and HDG ranging from 4000 to 62.5 μg/mL (depending on the microorganism tested) were performed in 96 well plates. After incubation for sufficient growth, the resazurin solution (1 mg/mL, 10 µL) was added to each well and the plate was incubated for 2 h. The MIC value for a microorganism was determined as the lowest concentration of the tested compound that prevented the color change of resazurin (blue to pink).

[9] = Water solubility (in words); assay type: physicochemical
[10] = tested on: Staphylococcus aureus; experiment: MIC, broth micro-dilution with resazurin; assay type: cell-based, Staphylococcus aureus (KCCM 11335); conditions: TS broth, 35 °C, tested up to 4000 μg/mL
Protocol: as §2, §3
(§4) MIC values were determined by the broth micro-dilution method with some modifications. Briefly, the culture broth of each microorganism was diluted with the same medium. […] The MIC value for a microorganism was determined as the lowest concentration of the tested compound that prevented the color change of resazurin (blue to pink).

[11] = tested on: Cutibacterium acnes; experiment: MIC, broth micro-dilution with resazurin; assay type: cell-based, Cutibacterium acnes (KCTC 25526); conditions: RCM medium, anaerobic, 35 °C, tested up to 4000 μg/mL
Protocol: as §2, §3, §4

[12] = tested on: Malassezia furfur; experiment: MIC, broth micro-dilution with resazurin; assay type: cell-based, Malassezia furfur (KCTC 7545); conditions: supplemented RPMI, 35 °C, tested up to 4000 μg/mL
Protocol: as §2, §3, §4

[13] = RPMI-1640, 35 °C, tested up to 4000 μg/mL

SMILES	DPPH radical scavenging activity ([1]; at a concentration of 50 μM, positive control)	β-carotene bleaching inhibitory activity ([2]; at a concentration of 25 μM, positive control)	logP at 20 h [3]	IC50 [1]	IC50 [2]	concentration showing cytotoxic effects / cell death [4]	NO levels (in words) [5]	effect on TNF-α production (in words) [6]	effect on IL-6 production (in words) [7]	MIC [8]	water solubility (in words) [9]	cytotoxicity (in words) [4]	MIC [8, 13]	NO production (in words) [5]	MIC [10]	MIC [11]	Log Po/w (n-octanol–water partition coefficient) [3]	MIC [12]
O=C1O[C@H]([C@@H](O)CO)C(O)=C1O [Ascorbic acid, reference compound]	48.74%																	
Cc1cc(C(C)(C)C)c(O)c(C(C)(C)C)c1 [BHT, butylated hydroxytoluene, reference compound]		47.08%																
COc1ccc(C2CC(=O)c3c(O)cc(O[C@@H]4O[C@H](CO[C@@H]5O[C@@H](C)[C@H](O)[C@@H](O)[C@H]5O)[C@@H](O)[C@H](O)[C@H]4O)cc3O2)cc1O (stereo partly shown) [HD, hesperetin 7-rutinoside]			2.13 ± 0.03	1409 ± 3.43 µM	260.8 ± 2.55 µM	100~200 μM	reduced NO levels at higher concentrations	Drastic effects were not observed	Drastic effects were not observed	2000 µg/mL (≈ 3280 µM)	poorly soluble in water							
COc1ccc(C2CC(=O)c3c(O)cc(O[C@@H]4O[C@H](CO[C@@H]5O[C@@H](C)[C@H](O)[C@@H](O)[C@H]5O)[C@@H](O[C@H]5O[C@H](CO)[C@@H](O)[C@H](O)[C@H]5O)[C@H](O)[C@H]4O)cc3O2)cc1O (stereo partly shown) [HDG, hesperidin glucoside]			-3.45	1408 ± 3.73 µM	267 ± 2.69 µM	> 200 µM	reduced NO levels at higher concentrations	Drastic effects were not observed	Drastic effects were not observed		highly soluble in water	much less cytotoxicity than the other compounds	2000 µg/mL (≈ 2590 µM)					
COc1ccc([C@@H]2CC(=O)c3c(O)cc(O)cc3O2)cc1O [HT, hesperetin]			2.59	893.1 ± 1.67 µM	110 ± 3.74 µM	100~200 μM					hardly soluble in water		500 µg/mL (≈ 1650 µM)	markedly decreased	2000 µg/mL (≈ 6620 µM)	1000 µg/mL (≈ 3310 µM)		
CCCCCCCCCCCC(=O)Oc1cc(O)c2c(c1)OC(c1ccc(OC)c(O)c1)CC2=O (stereo not shown) [HTL, hesperetin laurate]			7.28 ± 0.06	899.1 ± 2.52 µM	105 ± 2.01 µM			highest reducing effect	highest reducing effect		extremely insoluble in water	induced cell death at relatively low concentrations	250 µg/mL (≈ 516 µM)	markedly decreased	2000 µg/mL (≈ 4130 µM)	1000 µg/mL (≈ 2060 µM)	7.08 ± 0.06	1000 µg/mL (≈ 2060 µM)
